Converted amounts (≈) assume the structure as drawn. Read-outs that look alike come from different tables or passages of the source.
Experiments:
[1] = system: E. coli BL21(DE3) ΔacrB/pACYCΩmtrCDE; assay: MIC of antibiotics for E. coli BL21(DE3) ΔacrB/pACYCΩmtrCDE; assay type: cell-based; conditions: Escherichia coli
[2] = system: S. enterica subsp. enterica; assay: MIC of Nov for S. enterica subsp. enterica; assay type: cell-based; conditions: Salmonella enterica
[3] = system: N. gonorrhoeae WHO X mtrD::kan; assay: Nov MIC against gonococci by agar dilution, WHO X mtrD::kan; assay type: cell-based; conditions: Neisseria gonorrhoeae
Description: (§1) The MICs for Nov were determined by agar dilution as described previously ([53]). The construction of the mtrD::kan transformants was described previously ([3], [61]); note that WHO X was originally termed H041.

N. gonorrhoeae WHO X = assay: Nov MIC against gonococci by agar dilution, WHO X; assay type: cell-based; conditions: Neisseria gonorrhoeae, strain WHO X
Description: as §1

P. aeruginosa = assay: MIC of Nov for P. aeruginosa; assay type: cell-based; conditions: Pseudomonas aeruginosa
[4] = system: N. gonorrhoeae FA19 mtrD::kan; assay: Nov MIC against gonococci by agar dilution, FA19 mtrD::kan; assay type: cell-based; conditions: Neisseria gonorrhoeae
Description: as §1

E. coli K-12 = assay: MIC of Nov for E. coli K-12; assay type: cell-based; conditions: Escherichia coli, K12
N. subflava ATCC 49275 = assay: MIC of Nov for N. subflava; assay type: cell-based; conditions: Neisseria subflava, ATCC49275
E. coli K-12 ΔtolC::kan = assay: MIC of Nov for E. coli K-12 ΔtolC::kan; assay type: cell-based; conditions: Escherichia coli, read-out: MIC of Nov
N. gonorrhoeae FA19 = assay: Nov MIC against gonococci by agar dilution, FA19; assay type: cell-based; conditions: Neisseria gonorrhoeae, strain FA19
Description: as §1

[5] = target: MtrD_(CR103) multidrug efflux pump (MtrD from N. gonorrhoeae strain CR.103) (Neisseria gonorrhoeae strain CR.103) (UniProt Q51073); assay: cryo-EM structure; 2 μM MtrD_(CR103)-nanodisc sample incubated with 100 μM CASP, 20 μM Col or 50 μM LL for 2 h; single-particle cryo-EM

Compound: CO[C@@H]1[C@@H](OC(N)=O)[C@@H](O)[C@H](Oc2ccc3c(O)c(NC(=O)c4ccc(O)c(CC=C(C)C)c4)c(=O)oc3c2C)OC1(C)C [Nov, novobiocin]
- MIC ([1]; read-out: MIC for Nov): 125 µg/mL
- MIC [2]: 512 µg/mL
- MIC [3]: 0.25 µg/mL (≈ 0.408 µM)
- MIC (N. gonorrhoeae WHO X): 1 µg/mL (≈ 1.63 µM)
- MIC (P. aeruginosa): > 1000 µg/mL
- MIC [4]: 0.06 µg/mL (≈ 0.0979 µM)
- MIC (E. coli K-12): > 128 µg/mL
- MIC (N. subflava ATCC 49275): 1 µg/mL
- MIC (E. coli K-12 ΔtolC::kan): 4 µg/mL
- MIC (N. gonorrhoeae FA19): 0.25 µg/mL (≈ 0.408 µM)

Compound: MtrD_(CR103) multidrug efflux pump (MtrD from N. gonorrhoeae strain CR.103) (from UniProt Q51073 1-1067) (natural protein)
- stoichiometry N [5]: 3

Compound: [H]/N=C(/N)N[C@H]1[C@H](O)[C@@H](O)[C@H](O[C@@H]2O[C@@H](C)[C@](O)(C=O)[C@H]2O[C@@H]2O[C@@H](CO)[C@H](O)[C@@H](O)[C@@H]2NC)[C@@H](N/C(N)=N\[H])[C@@H]1O [streptomycin]
- MIC ([1]; read-out: MIC of streptomycin): 8 µg/mL

Reference: publication PMC9603588, “Structural Basis of Peptide-Based Antimicrobial Inhibition of a Resistance-Nodulation-Cell Division Multidrug Efflux Pump” (Microbiology Spectrum, 2022)
